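How tested: cells in 96-well plates exposed to compound for 48 hours at five concentrations. At the TGI there is no net growth.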
Tests used:
Experiment in all cases: NCI-60 cell line screen, 48 h
HT29 colon = tested on: HT29 colon
SK-OV-3 ovarian = tested on: SK-OV-3 ovarian
UACC-257 melanoma = tested on: UACC-257 melanoma
DMS 273 small cell lung = tested on: DMS 273 small cell lung
HCT-116 colon = tested on: HCT-116 colon
SW-620 colon = tested on: SW-620 colon
SR leukemia = tested on: SR leukemia
LXFL 529 NSCLC = tested on: LXFL 529 NSCLC
NCI-H522 lung = tested on: NCI-H522 lung
SN12C renal = tested on: SN12C renal
SK-MEL-28 melanoma = tested on: SK-MEL-28 melanoma
SF-539 CNS = tested on: SF-539 CNS
RPMI-8226 leukemia = tested on: RPMI-8226 leukemia
EKVX NSCLC = tested on: EKVX NSCLC
KM12 colon = tested on: KM12 colon
DLD-1 colon = tested on: DLD-1 colon
RXF 393 renal = tested on: RXF 393 renal
A498 renal = tested on: A498 renal
M19-MEL melanoma = tested on: M19-MEL melanoma
ACHN renal = tested on: ACHN renal
SNB-78 CNS = tested on: SNB-78 CNS
DMS 114 small cell lung = tested on: DMS 114 small cell lung
SF-295 CNS = tested on: SF-295 CNS
HOP-92 NSCLC = tested on: HOP-92 NSCLC
HCC-2998 colon = tested on: HCC-2998 colon
SK-MEL-5 melanoma = tested on: SK-MEL-5 melanoma
CCRF-CEM leukemia = tested on: CCRF-CEM leukemia
TK-10 renal = tested on: TK-10 renal
SNB-19 CNS = tested on: SNB-19 CNS
U251 CNS = tested on: U251 CNS
COLO 205 colon = tested on: COLO 205 colon
786-0 renal = tested on: 786-0 renal
MOLT-4 leukemia = tested on: MOLT-4 leukemia
SNB-75 CNS = tested on: SNB-75 CNS
A549 NSCLC = tested on: A549 NSCLC
SF-268 CNS = tested on: SF-268 CNS
UO-31 renal = tested on: UO-31 renal
OVCAR-3 ovarian = tested on: OVCAR-3 ovarian
NCI-H23 lung = tested on: NCI-H23 lung
NCI-H460 lung = tested on: NCI-H460 lung
MALME-3M melanoma = tested on: MALME-3M melanoma
IGROV1 ovarian = tested on: IGROV1 ovarian
OVCAR-8 ovarian = tested on: OVCAR-8 ovarian
K-562 leukemia = tested on: K-562 leukemia
OVCAR-5 ovarian = tested on: OVCAR-5 ovarian
SK-MEL-2 melanoma = tested on: SK-MEL-2 melanoma
UACC-62 melanoma = tested on: UACC-62 melanoma
CAKI-1 renal = tested on: CAKI-1 renal
M14 melanoma = tested on: M14 melanoma
LOX IMVI melanoma = tested on: LOX IMVI melanoma
NCI/ADR-RES ovarian = tested on: NCI/ADR-RES ovarian
MDA-N = tested on: MDA-N
NCI-H226 lung = tested on: NCI-H226 lung
MDA-MB-231 breast = tested on: MDA-MB-231 breast
HS 578T breast = tested on: HS 578T breast
MCF7 breast = tested on: MCF7 breast
MDA-MB-435 = tested on: MDA-MB-435
T-47D breast = tested on: T-47D breast
PC-3 prostate = tested on: PC-3 prostate
HCT-15 colon = tested on: HCT-15 colon
DU-145 prostate = tested on: DU-145 prostate
OVCAR-4 ovarian = tested on: OVCAR-4 ovarian
HL-60(TB) leukemia = tested on: HL-60(TB) leukemia
BT-549 breast = tested on: BT-549 breast
HOP-62 NSCLC = tested on: HOP-62 NSCLC

Measured: TGI

C[Si]12OCCCN(CCO1)CCO2
> 100 µM: HT29 colon | SK-OV-3 ovarian | UACC-257 melanoma | DMS 273 small cell lung | HCT-116 colon | SW-620 colon | SR leukemia | LXFL 529 NSCLC | NCI-H522 lung | SN12C renal | SK-MEL-28 melanoma | SF-539 CNS | RPMI-8226 leukemia | EKVX NSCLC | KM12 colon | DLD-1 colon | RXF 393 renal | A498 renal | M19-MEL melanoma | ACHN renal | SNB-78 CNS | DMS 114 small cell lung | SF-295 CNS | HOP-92 NSCLC | HCC-2998 colon | SK-MEL-5 melanoma | CCRF-CEM leukemia | TK-10 renal | SNB-19 CNS | U251 CNS | COLO 205 colon | 786-0 renal | MOLT-4 leukemia | SNB-75 CNS | A549 NSCLC | SF-268 CNS | UO-31 renal | OVCAR-3 ovarian | NCI-H23 lung | NCI-H460 lung | MALME-3M melanoma | IGROV1 ovarian | OVCAR-8 ovarian | K-562 leukemia | OVCAR-5 ovarian | SK-MEL-2 melanoma | UACC-62 melanoma | CAKI-1 renal

O=C(NC1(C(=O)O)CC1c1ccccc1)c1ccccc1 (stereo not given)
> 100 µM: HT29 colon | SK-OV-3 ovarian | UACC-257 melanoma | HCT-116 colon | SW-620 colon | M14 melanoma | LOX IMVI melanoma | SR leukemia | NCI-H522 lung | SN12C renal | SK-MEL-28 melanoma | SF-539 CNS | NCI/ADR-RES ovarian | RPMI-8226 leukemia | MDA-N | NCI-H226 lung | EKVX NSCLC | KM12 colon | RXF 393 renal | MDA-MB-231 breast | A498 renal | ACHN renal | SF-295 CNS | HOP-92 NSCLC | HCC-2998 colon | TK-10 renal | SNB-19 CNS | HS 578T breast | U251 CNS | COLO 205 colon | 786-0 renal | MOLT-4 leukemia | SNB-75 CNS | A549 NSCLC | SF-268 CNS | UO-31 renal | MCF7 breast | OVCAR-3 ovarian | MDA-MB-435 | NCI-H23 lung | T-47D breast | NCI-H460 lung | PC-3 prostate | MALME-3M melanoma | IGROV1 ovarian | HCT-15 colon | DU-145 prostate | OVCAR-8 ovarian | OVCAR-4 ovarian | K-562 leukemia | OVCAR-5 ovarian | HL-60(TB) leukemia | SK-MEL-2 melanoma | BT-549 breast | UACC-62 melanoma | HOP-62 NSCLC | CAKI-1 renal

O=C(NN1C(=O)C=CC1=O)c1ccccc1Nc1ccccc1C(=O)NN1C(=O)C=CC1=O
> 100 µM: HT29 colon | UACC-257 melanoma | HCT-116 colon | SW-620 colon | M14 melanoma | LOX IMVI melanoma | SR leukemia | NCI-H522 lung | SN12C renal | SK-MEL-28 melanoma | SF-539 CNS | NCI/ADR-RES ovarian | RPMI-8226 leukemia | MDA-N | NCI-H226 lung | EKVX NSCLC | KM12 colon | RXF 393 renal | MDA-MB-231 breast | ACHN renal | SF-295 CNS | HOP-92 NSCLC | HCC-2998 colon | SK-MEL-5 melanoma | CCRF-CEM leukemia | TK-10 renal | SNB-19 CNS | U251 CNS | COLO 205 colon | 786-0 renal | MOLT-4 leukemia | SNB-75 CNS | SF-268 CNS | UO-31 renal | MCF7 breast | OVCAR-3 ovarian | MDA-MB-435 | NCI-H23 lung | T-47D breast | NCI-H460 lung | PC-3 prostate | MALME-3M melanoma | IGROV1 ovarian | HCT-15 colon | DU-145 prostate | OVCAR-8 ovarian | OVCAR-4 ovarian | K-562 leukemia | OVCAR-5 ovarian | HL-60(TB) leukemia | SK-MEL-2 melanoma | BT-549 breast | UACC-62 melanoma | HOP-62 NSCLC | CAKI-1 renal

— PubChem BioAssay (NCI)
